Results as given in ChEMBL document CHEMBL3885881, “DrugMatrix”.

Species on record: Rattus norvegicus
Assay: DrugMatrix - Regimen: Daily Repeat
Type: toxicity, organism-based, Sprague-Dawley
Design: regimen Daily Repeat, gender Male, age 6-8 weeks
Conditions: in vivo, po, route oral GAVAGE; for TOTAL BILIRUBIN / TOTAL PROTEIN / URIC ACID / ALANINE AMINOTRANSFERASE / ALBUMIN / ALKALINE PHOSPHATASE / ASPARTATE AMINOTRANSFERASE / BLOOD UREA NITROGEN / CARBON DIOXIDE / CHLORIDE / CHOLESTEROL / CREATINE PHOSPHOKINASE / CREATININE / GLUCOSE / LIPASE / PHOSPHORUS / POTASSIUM / SODIUM / LACTATE DEHYDROGENASE: tissue Plasma; for ABSOLUTE BASOPHIL / ABSOLUTE EOSINOPHIL / ABSOLUTE LYMPHOCYTE / ABSOLUTE MONOCYTE / BASOPHIL / EOSINOPHIL / ERYTHROCYTE COUNT / HEMATOCRIT / HEMOGLOBIN / LEUKOCYTE COUNT / LYMPHOCYTE / MEAN CORPUSCULAR HEMOGLOBIN / MEAN CORPUSCULAR HEMOGLOBIN CONCENTRATION / MEAN CORPUSCULAR VOLUME / MONOCYTE / NEUTROPHIL / PLATELET COUNT: tissue Blood
[1] = 40 mg/kg, 72 h, dose level Low, time 3 day, […]
[2] = 40 mg/kg, 120 h, dose level Low, time 5 day, […]
[3] = 40 mg/kg, […], dose level Low, time 14 day
[4] = 75 mg/kg, 72 h, dose level High, time 3 day, vehicle 100 % WATER
[5] = 75 mg/kg, 120 h, dose level High, time 5 day, vehicle 100 % WATER

Structure (SMILES): C=CCN [ALLYLAMINE]
- TOTAL BILIRUBIN [1]: 0.37 mg/dL
- TOTAL PROTEIN [1]: 6.2 G/DL
- URIC ACID [1]: 0.87 mg/dL
- ABSOLUTE BASOPHIL [2]: 43.3 cells/µL
- ABSOLUTE EOSINOPHIL [2]: 90 cells/µL
- ABSOLUTE LYMPHOCYTE [2]: 7670 cells/µL
- ABSOLUTE MONOCYTE [2]: 220 cells/µL
- BASOPHIL [2]: 0.4%
- EOSINOPHIL [2]: 0.87%
- ERYTHROCYTE COUNT [2]: 6.74 x10E6/uL
- HEMATOCRIT [2]: 45.3%
- HEMOGLOBIN [2]: 14.1 G/DL
- LEUKOCYTE COUNT [2]: 9.63 x10E3/uL
- LYMPHOCYTE [2]: 79.33%
- MEAN CORPUSCULAR HEMOGLOBIN [2]: 20.87 pg
- MEAN CORPUSCULAR HEMOGLOBIN CONCENTRATION [2]: 31 G/DL
- MEAN CORPUSCULAR VOLUME [2]: 67.23 fL
- MONOCYTE [2]: 2.27%
- NEUTROPHIL [2]: 16.57%
- PLATELET COUNT [2]: 1351.33 x10E3/uL
- ALANINE AMINOTRANSFERASE [2]: 42.33 u/L
- ALBUMIN [2]: 4.03 G/DL
- ALKALINE PHOSPHATASE [2]: 470.67 u/L
- ASPARTATE AMINOTRANSFERASE [2]: 72.67 u/L
- BLOOD UREA NITROGEN [2]: 16 mg/dL
- CARBON DIOXIDE [2]: 41 mmol/L
- CHLORIDE [2]: 105.33 MEQ/L
- CHOLESTEROL [2]: 72 mg/dL
- CREATINE PHOSPHOKINASE [2]: 350.33 u/L
- CREATININE [2]: 0.53 mg/dL
- GLUCOSE [2]: 155.33 mg/dL
- LIPASE [2]: 249.67 u/L
- PHOSPHORUS [2]: 9.53 mg/dL
- POTASSIUM [2]: 6.27 MEQ/L
- SODIUM [2]: 147.33 MEQ/L
- TOTAL BILIRUBIN [2]: 0.47 mg/dL
- TOTAL PROTEIN [2]: 6.63 G/DL
- URIC ACID [2]: 0.9 mg/dL
- ABSOLUTE BASOPHIL [3]: 50 cells/µL
- ABSOLUTE EOSINOPHIL [3]: 42 cells/µL
- ABSOLUTE LYMPHOCYTE [3]: 10000 cells/µL
- ABSOLUTE MONOCYTE [3]: 250 cells/µL
- BASOPHIL [3]: 0.38%
- EOSINOPHIL [3]: 0.34%
- ERYTHROCYTE COUNT [3]: 7.47 x10E6/uL
- HEMATOCRIT [3]: 46.98%
- HEMOGLOBIN [3]: 15.52 G/DL
- LEUKOCYTE COUNT [3]: 12.8 x10E3/uL
- LYMPHOCYTE [3]: 78.9%
- MEAN CORPUSCULAR HEMOGLOBIN [3]: 20.78 pg
- MEAN CORPUSCULAR HEMOGLOBIN CONCENTRATION [3]: 33.02 G/DL
- MEAN CORPUSCULAR VOLUME [3]: 62.96 fL
- MONOCYTE [3]: 1.9%
- NEUTROPHIL [3]: 17.96%
- PLATELET COUNT [3]: 1148.8 x10E3/uL
- ALANINE AMINOTRANSFERASE [3]: 29 u/L
- ALBUMIN [3]: 4.18 G/DL
- ALKALINE PHOSPHATASE [3]: 389.8 u/L
- ASPARTATE AMINOTRANSFERASE [3]: 69.2 u/L
- BLOOD UREA NITROGEN [3]: 13.8 mg/dL
- CARBON DIOXIDE [3]: 44.6 mmol/L
- CHLORIDE [3]: 102.4 MEQ/L
- CHOLESTEROL [3]: 74.2 mg/dL
- CREATINE PHOSPHOKINASE [3]: 240 u/L
- CREATININE [3]: 0.76 mg/dL
- GLUCOSE [3]: 131.8 mg/dL
- LACTATE DEHYDROGENASE [3]: 199 u/L
- LIPASE [3]: 11.2 u/L
- PHOSPHORUS [3]: 9.98 mg/dL
- POTASSIUM [3]: 6.2 MEQ/L
- SODIUM [3]: 145.8 MEQ/L
- TOTAL BILIRUBIN [3]: 0.4 mg/dL
- TOTAL PROTEIN [3]: 6.92 G/DL
- URIC ACID [3]: 0.58 mg/dL
- BASOPHIL [4]: 0.63%
- EOSINOPHIL [4]: 0.23%
- ERYTHROCYTE COUNT [4]: 6.73 x10E6/uL
- HEMATOCRIT [4]: 44.27%
- HEMOGLOBIN [4]: 14.4 G/DL
- LEUKOCYTE COUNT [4]: 16.4 x10E3/uL
- LYMPHOCYTE [4]: 77.37%
- MEAN CORPUSCULAR HEMOGLOBIN [4]: 21.43 pg
- MEAN CORPUSCULAR HEMOGLOBIN CONCENTRATION [4]: 32.6 G/DL
- MEAN CORPUSCULAR VOLUME [4]: 65.77 fL
- MONOCYTE [4]: 2.5%
- NEUTROPHIL [4]: 16.67%
- PLATELET COUNT [4]: 1260.67 x10E3/uL
- ALANINE AMINOTRANSFERASE [4]: 39 u/L
- ALBUMIN [4]: 3.9 G/DL
- ALKALINE PHOSPHATASE [4]: 237 u/L
- ASPARTATE AMINOTRANSFERASE [4]: 74.33 u/L
- BLOOD UREA NITROGEN [4]: 13.67 mg/dL
- CARBON DIOXIDE [4]: 24.67 mmol/L
- CHLORIDE [4]: 108 MEQ/L
- CHOLESTEROL [4]: 104.33 mg/dL
- CREATINE PHOSPHOKINASE [4]: 169 u/L
- CREATININE [4]: 0.4 mg/dL
- GLUCOSE [4]: 146 mg/dL
- LACTATE DEHYDROGENASE [4]: 59 u/L
- LIPASE [4]: 35.33 u/L
- PHOSPHORUS [4]: 11.03 mg/dL
- POTASSIUM [4]: 5.8 MEQ/L
- SODIUM [4]: 151 MEQ/L
- TOTAL BILIRUBIN [4]: 0.23 mg/dL
- TOTAL PROTEIN [4]: 6.07 G/DL
- URIC ACID [4]: 1.93 mg/dL
- BASOPHIL [5]: 0.35%
- EOSINOPHIL [5]: 0.7%
- ERYTHROCYTE COUNT [5]: 6.38 x10E6/uL
- HEMATOCRIT [5]: 42.1%
- HEMOGLOBIN [5]: 13.35 G/DL
- LEUKOCYTE COUNT [5]: 11.54 x10E3/uL
- LYMPHOCYTE [5]: 82.75%
- MEAN CORPUSCULAR HEMOGLOBIN [5]: 20.9 pg
- MEAN CORPUSCULAR HEMOGLOBIN CONCENTRATION [5]: 31.65 G/DL
- MEAN CORPUSCULAR VOLUME [5]: 66.05 fL
- MONOCYTE [5]: 2%
- NEUTROPHIL [5]: 6.45%
- PLATELET COUNT [5]: 1169 x10E3/uL
- ALANINE AMINOTRANSFERASE [5]: 28.5 u/L
- ALBUMIN [5]: 4 G/DL
- ALKALINE PHOSPHATASE [5]: 238.5 u/L
- ASPARTATE AMINOTRANSFERASE [5]: 69.5 u/L
- BLOOD UREA NITROGEN [5]: 17.5 mg/dL
- CARBON DIOXIDE [5]: 23 mmol/L
- CHLORIDE [5]: 107.5 MEQ/L
- CHOLESTEROL [5]: 62 mg/dL
- CREATINE PHOSPHOKINASE [5]: 269 u/L
- CREATININE [5]: 0.25 mg/dL
- GLUCOSE [5]: 145 mg/dL
- LACTATE DEHYDROGENASE [5]: 62 u/L
- LIPASE [5]: 19 u/L
- PHOSPHORUS [5]: 13.95 mg/dL
- POTASSIUM [5]: 7.05 MEQ/L
- SODIUM [5]: 149.5 MEQ/L
- TOTAL BILIRUBIN [5]: 0.4 mg/dL
- TOTAL PROTEIN [5]: 6.15 G/DL
- URIC ACID [5]: 2.85 mg/dL
